Consider 15 molecules from patent US20240024490A1, “BIFUNCTIONAL MOLECULES FOR SELECTIVE MODIFICATION OF TARGET SUBSTRATES” (The Broad Institute, Inc., priority 2021, published 2024).

Like-named read-outs stand apart in the source and are kept apart here.

One data set deals with Crk-L. To be noted: cited from earlier work.
For data set [1] the following is noted: cited from earlier work.
Another data set relates to FGFR2. To be noted: read-out: IC50, FGF1-induced ERK phosphorylation via FGFR2; cited from earlier work.
The subject of the next data set is PTK2. To be noted: prostate cancer cells; read-out: IC50, autophosphorylation of PTK2; cited from earlier work.
The test system of data set [2] is NCI-H441 cells. To be noted: read-out: phosphor-MET IC50; cited from earlier work.
In data set [3] the test system is NCI-H441 cells. To be noted: read-out: Invasion IC50; cited from earlier work.
A further data set addresses T1, c-Met (Homo sapiens, UniProt P08581).
T1 construct: host or cells: NCI-H441 (as the sentence says)
To be noted: cited from earlier work.

Data set [4] has as its system NCI-H441 cells. To be noted: read-out: viability IC50; cited from earlier work.
Another data set deals with AMPK. To be noted: cited from earlier work.
The target in another data set is RIPK-1 (Homo sapiens, UniProt Q13546). To be noted: cited from earlier work.
For data set [5] the following is noted: in vivo; cited from earlier work.
Another data set has as its system p-ERK1/2. To be noted: cited from earlier work.
Another data set deals with Nalm6. To be noted: cited from earlier work.
Data set [6] has as its system Molt-4 (T cell acute lymphoblastic leukemia) xenografts. To be noted: SCID mice; cited from earlier work.
For a further data set, the system named is SEM cells. To be noted: cited from earlier work.
The subject of a further data set is 697 cells. To be noted: cited from earlier work.
The next data set has as its system LAX7R. To be noted: cited from earlier work.
The test system of another data set is KOPN-8. To be noted: cited from earlier work.
A further data set concerns Z138. To be noted: read-out: IC50, proliferation; cited from earlier work.
Another data set has as its system MS751 cervical carcinoma. To be noted: read-out: IC50, proliferation; cited from earlier work.
The next data set relates to ICN13. To be noted: cited from earlier work.
The test system of a further data set is OP-1. To be noted: cited from earlier work.
A further data set concerns LAX2. To be noted: cited from earlier work.
In the next data set the test system is SupB15. To be noted: cited from earlier work.
The next data set has as its system REH. To be noted: cited from earlier work.
A further data set has as its system RS4. To be noted: cited from earlier work.
The test system of another data set is HER2-Cter-FKBP. The data set is described as follows: Phosphorylation of HER2-Cter-FKBP by ABL in transfected HEK293 cells (pY1221 HER2-specific antibody). It is filed as cell-based. To be noted: 15 minutes of compound treatment, FIG. 74C.
Another data set has as its system HER2-Cter-FKBP construct. The data set is described as follows: Phosphorylation of HER2-FKBP construct by ABL in HEK293 cells. To be noted: 15 minutes, pY1221 HER2-specific antibody. It is filed as cell-based.
The next data set has as its system FGFR. The data set is described as follows: FGFR-FKBP phosphorylation by ABL and FGFR1/mTOR/G-CSF signaling. Format: cell-based. From the text: Applicants expanded the scope of ABL targets by phosphorylating a receptor tyrosine kinase, FGFR by fusing an FKBP domain to the cytosolic portion of FGFR (FIG. 37).
For data set [7] the following is noted: cited from earlier work. This is another data set of the same source.
A further data set relates to C26. To be noted: cited from earlier work.
The test system of data set [8] is EGFR(L858R/T790M/C797S) tumors. To be noted: in vivo; cited from earlier work.
The subject of data set [9] is screening panel of kinases. To be noted: 1000 nM EAI045; cited from earlier work.
Data set [10] relates to LPS-stimulated THP-1 cells. To be noted: read-out: IC50, block of TNFα release; cited from earlier work.
For another data set, the system named is KU-19-19 (bladder). To be noted: cited from earlier work.
A further data set deals with BT-474 (breast). To be noted: cited from earlier work.
In the next data set the test system is MCF-7 (breast). To be noted: cited from earlier work.
For data set [11], the target named is β2 subunit-containing AMPK (Homo sapiens, UniProt O43741+Q13131). To be noted: cited from earlier work.
The target of data set [12] is β1 subunit-containing AMPK (Homo sapiens, UniProt Q13131+Q9Y478). To be noted: cited from earlier work.
Data set [13] deals with CD138-purified multiple myeloma (MM) cells from patients. To be noted: cited from earlier work.

T1 sequence (P08581 25-1390): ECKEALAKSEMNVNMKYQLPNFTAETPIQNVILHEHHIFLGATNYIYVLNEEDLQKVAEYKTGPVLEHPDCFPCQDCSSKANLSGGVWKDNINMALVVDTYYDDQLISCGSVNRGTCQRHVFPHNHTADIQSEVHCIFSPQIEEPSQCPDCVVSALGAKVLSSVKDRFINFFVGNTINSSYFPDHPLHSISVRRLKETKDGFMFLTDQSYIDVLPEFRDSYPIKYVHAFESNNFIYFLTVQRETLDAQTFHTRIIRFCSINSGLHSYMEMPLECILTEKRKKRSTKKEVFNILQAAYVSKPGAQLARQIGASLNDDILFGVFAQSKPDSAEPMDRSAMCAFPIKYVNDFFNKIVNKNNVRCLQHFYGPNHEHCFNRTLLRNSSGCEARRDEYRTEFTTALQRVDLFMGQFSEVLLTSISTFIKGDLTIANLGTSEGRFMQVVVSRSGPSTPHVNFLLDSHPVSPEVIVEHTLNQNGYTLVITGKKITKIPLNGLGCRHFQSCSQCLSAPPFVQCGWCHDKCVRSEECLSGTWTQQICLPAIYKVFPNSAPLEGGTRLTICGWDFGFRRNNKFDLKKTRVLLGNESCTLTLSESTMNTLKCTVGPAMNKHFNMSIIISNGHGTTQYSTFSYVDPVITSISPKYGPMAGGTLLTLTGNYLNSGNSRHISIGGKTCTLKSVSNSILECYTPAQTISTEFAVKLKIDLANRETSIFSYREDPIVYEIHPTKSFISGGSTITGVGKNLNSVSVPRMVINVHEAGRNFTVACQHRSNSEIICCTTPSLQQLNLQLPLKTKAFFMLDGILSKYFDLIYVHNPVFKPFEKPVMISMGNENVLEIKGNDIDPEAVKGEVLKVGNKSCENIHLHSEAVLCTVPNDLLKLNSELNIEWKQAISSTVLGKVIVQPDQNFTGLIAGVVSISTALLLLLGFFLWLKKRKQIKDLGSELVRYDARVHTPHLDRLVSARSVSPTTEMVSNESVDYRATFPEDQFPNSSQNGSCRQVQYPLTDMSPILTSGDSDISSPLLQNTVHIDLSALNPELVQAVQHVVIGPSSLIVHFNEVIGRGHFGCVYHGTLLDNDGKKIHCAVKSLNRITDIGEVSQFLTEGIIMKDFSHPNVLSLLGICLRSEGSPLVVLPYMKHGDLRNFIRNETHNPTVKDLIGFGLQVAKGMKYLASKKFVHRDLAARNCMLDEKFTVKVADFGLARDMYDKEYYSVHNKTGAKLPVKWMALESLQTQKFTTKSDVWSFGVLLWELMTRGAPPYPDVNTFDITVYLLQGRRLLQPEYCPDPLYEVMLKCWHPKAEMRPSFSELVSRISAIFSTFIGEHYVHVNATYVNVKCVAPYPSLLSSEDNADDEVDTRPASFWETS
RIPK-1, sequence (Q13546 whole entry, species assumed): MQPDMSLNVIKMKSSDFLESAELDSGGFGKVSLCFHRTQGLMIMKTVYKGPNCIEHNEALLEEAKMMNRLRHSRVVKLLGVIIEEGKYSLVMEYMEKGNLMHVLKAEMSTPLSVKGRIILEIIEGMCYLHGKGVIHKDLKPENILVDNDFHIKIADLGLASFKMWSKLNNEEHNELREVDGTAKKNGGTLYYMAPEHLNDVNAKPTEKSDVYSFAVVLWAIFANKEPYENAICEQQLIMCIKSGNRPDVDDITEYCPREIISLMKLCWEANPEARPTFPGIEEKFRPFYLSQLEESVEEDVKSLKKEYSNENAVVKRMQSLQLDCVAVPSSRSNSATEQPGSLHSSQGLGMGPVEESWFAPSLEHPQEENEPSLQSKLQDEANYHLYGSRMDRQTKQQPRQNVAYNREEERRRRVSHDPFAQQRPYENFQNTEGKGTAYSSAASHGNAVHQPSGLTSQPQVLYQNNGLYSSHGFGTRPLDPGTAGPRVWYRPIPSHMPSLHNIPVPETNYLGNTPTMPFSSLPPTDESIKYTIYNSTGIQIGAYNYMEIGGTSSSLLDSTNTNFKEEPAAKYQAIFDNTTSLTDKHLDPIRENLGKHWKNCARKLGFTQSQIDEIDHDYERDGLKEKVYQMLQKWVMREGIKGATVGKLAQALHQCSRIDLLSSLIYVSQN
β2 subunit-containing AMPK, sequence (O43741 whole entry): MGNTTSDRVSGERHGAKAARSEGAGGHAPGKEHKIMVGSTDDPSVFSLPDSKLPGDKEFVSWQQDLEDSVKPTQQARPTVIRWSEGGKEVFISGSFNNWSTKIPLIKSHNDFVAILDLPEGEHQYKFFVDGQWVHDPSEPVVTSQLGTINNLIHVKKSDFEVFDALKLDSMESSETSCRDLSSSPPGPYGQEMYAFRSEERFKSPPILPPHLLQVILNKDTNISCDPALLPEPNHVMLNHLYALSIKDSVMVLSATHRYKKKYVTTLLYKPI
β2 subunit-containing AMPK, sequence (Q13131 whole entry): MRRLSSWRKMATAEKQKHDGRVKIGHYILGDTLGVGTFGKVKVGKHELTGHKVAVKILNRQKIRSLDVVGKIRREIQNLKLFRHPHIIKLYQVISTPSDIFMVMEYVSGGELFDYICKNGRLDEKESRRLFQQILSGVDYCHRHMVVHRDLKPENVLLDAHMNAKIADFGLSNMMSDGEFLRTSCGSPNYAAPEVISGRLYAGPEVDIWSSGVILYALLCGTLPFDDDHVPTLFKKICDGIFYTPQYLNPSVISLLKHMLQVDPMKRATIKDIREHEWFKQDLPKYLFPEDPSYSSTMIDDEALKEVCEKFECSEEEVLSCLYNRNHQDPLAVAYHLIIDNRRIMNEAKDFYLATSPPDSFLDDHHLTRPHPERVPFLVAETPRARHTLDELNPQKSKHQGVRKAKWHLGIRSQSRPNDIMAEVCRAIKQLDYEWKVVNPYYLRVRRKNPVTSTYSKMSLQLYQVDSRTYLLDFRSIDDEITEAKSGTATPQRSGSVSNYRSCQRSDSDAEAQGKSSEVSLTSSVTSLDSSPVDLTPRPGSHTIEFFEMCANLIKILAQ
β2 subunit-containing AMPK, sequence (P54619 whole entry partner): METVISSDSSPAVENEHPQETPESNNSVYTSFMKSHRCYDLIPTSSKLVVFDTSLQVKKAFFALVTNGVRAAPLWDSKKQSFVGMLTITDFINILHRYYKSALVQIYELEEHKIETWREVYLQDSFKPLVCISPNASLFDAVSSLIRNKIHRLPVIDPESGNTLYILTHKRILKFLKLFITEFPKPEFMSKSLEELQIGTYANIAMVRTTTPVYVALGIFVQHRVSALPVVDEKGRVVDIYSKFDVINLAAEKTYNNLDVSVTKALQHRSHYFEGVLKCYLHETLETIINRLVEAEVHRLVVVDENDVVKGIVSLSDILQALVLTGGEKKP
β1 subunit-containing AMPK, sequence (Q9Y478 whole entry): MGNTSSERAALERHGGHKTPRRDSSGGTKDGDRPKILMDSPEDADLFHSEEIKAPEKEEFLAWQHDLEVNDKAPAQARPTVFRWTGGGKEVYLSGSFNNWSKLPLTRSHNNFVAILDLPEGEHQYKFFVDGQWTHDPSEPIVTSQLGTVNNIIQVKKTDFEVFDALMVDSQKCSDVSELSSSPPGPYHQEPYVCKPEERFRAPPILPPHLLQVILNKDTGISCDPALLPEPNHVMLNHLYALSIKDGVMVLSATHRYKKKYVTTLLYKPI
β1 subunit-containing AMPK, sequence (Q13131 whole entry): as the sequence (Q13131 whole entry) above
β1 subunit-containing AMPK, sequence (P54619 whole entry partner): as the sequence (P54619 whole entry partner) above

As for `N#CCCC(=O)NC1=NN(c2ccc(Cl)c(Cl)c2)CC1` [compound 32], the results for the “Fold Increase phCRKE Vs Total Crk-L (normalised)” value in the data set with Crk-L (40 min) and in the data set on Crk-L (180 min) were 19x and 35x, respectively. In addition, the “In Vitro Clearance” value in [1] is given as under 0.01 mL/min/mg protein.
For `COc1c(C)c(C(=O)c2ccc(N)c(C(=O)O)c2)n2ccccc12` [SSR128129E], the IC50 in the data set with FGFR2 was under 0.1 µM.
On to `CN1c2ccc(NCc3ccc(C(C)(C)C)cc3)cc2-c2c(cnn2C)S1(=O)=O` [compound 30], for which, in the data set with PTK2, the IC50 is 7.1 µM.
In the case of `O=C1NC(=O)[C@@H](c2cn3c4c(cccc24)CCC3)[C@@H]1c1c[nH]c2ccccc12` [tivantinib], the IC50 with NCI-H441 cells [2] is 0.1 µM; in the data set with NCI-H441 cells [3], 0.08 µM; on c-Met (read-out: Enzyme IC50), 0.05 µM; in the data set with NCI-H441 cells [4], 0.1 µM. Moreover, the pKi (usually the negative decadic logarithm of the Ki, by convention in mol/L) on c-Met is reported as 6.4. On c-Met, the “selectivity for c-Met over other kinases tested” value was 10-100 time.
Regarding `N#Cc1c(O)c2c(-c3ccc(-c4ccccc4O)cc3)csc2[nH]c1=O` [A769662], the pEC50 (as a rule, the EC50 on a negative log10 scale, so that one unit is a factor of ten) with AMPK is 6.0.
Turning to `CCC(C)(C)C(=O)N(O)Cc1ccccc1` [RIPA-56], the pIC50 (as a rule, −log10 of the IC50, conventionally taken in molar units) at RIPK-1 was 7.9.
As to `CC(=O)Nc1cccc(-n2c(=O)n(C3CC3)c(=O)c3c(Nc4ccc(I)cc4F)n(C)c(=O)c(C)c32)c1` [Trametinib, Trametnib], the “Absorption/distribution of an oral dose” value in data set [5] is 72%. In addition, the “sustained suppression of p-ERK1/2” value with p-ERK1/2 is on record as “more than 24 hours”.
As to `Nc1ccc(/C=C/C(=O)NCc2cc3cc(-c4ccc(C(=O)N5CCC(F)(F)CC5)cc4)cc(-c4ccc(F)cc4)c3o2)cn1` [KPT-9274], the IC50 was 0.019 µM in the data set with Nalm6; over 10 µM with SEM cells; 0.0167 µM with 697 cells; 0.0327 µM with LAX7R; 0.0024 µM in the data set with KOPN-8; under 0.1 µM in the data set with Z138. For the same molecule, the IC50 was under 0.1 µM in the data set with MS751 cervical carcinoma; 0.0259 µM in the data set on ICN13; 0.018 µM in the data set on OP-1; 0.0194 µM in the data set on LAX2; 0.0226 µM in the data set with SupB15; 0.0143 µM in the data set with REH. In the data set on RS4, the IC50 is 0.0056 µM. The effect on xenografts entry in data set [6] is “induces shrinkage”.
As to `CC[C@H](C(=O)N1CCCC[C@H]1C(=O)O[C@@H](CCc1ccc(OC)c(OC)c1)c1cccc(OCC(=O)NCCOCCOCCOCCOCCC(=O)NC2=NN(c3ccc(Cl)c(Cl)c3)CC2)c1)c1cc(OC)c(OC)c(OC)c1` [VS1043], the “phosphorylation of HER2-Cter-FKBP construct” value in the data set on HER2-Cter-FKBP and with HER2-Cter-FKBP construct was “significant phosphorylation” each time. Moreover, the “FGFR phosphorylation / FGFR1/mTOR/G-CSF signaling” value with FGFR is recorded as “activates FGFR1/mTOR/G-CSF signaling in a dose dependent manner”.
For the molecule `O=C(NOCC1CC1)c1ccc(F)c(F)c1Nc1ccc(I)cc1Cl` [24 (CI-1040), CI-1040], the “Sol (pH 6.5)” value in data set [7] was under 1 μg/mL. In addition, in the data set on C26, the IC50 was 0.035 µM.
For `O=C(Nc1nccs1)C(c1cc(F)ccc1O)N1Cc2ccccc2C1=O` (stereo not shown) [EAI045], the “efficacy in xenograft models” value in [8] was “effective”. Besides, the “inhibition of any other kinases in screening panels” value in data set [9] was at most 20%.
Regarding `Cc1ccc(-n2nc(C(C)(C)C)cc2NC(=O)Nc2ccc(OCCN3CCOCC3)c3ccccc23)cc1` [Doramapimod], the IC50 in data set [10] is 0.018 µM.
As to `C=CC(=O)Nc1ccc2[nH]c(=O)n(C3CCN(Cc4ccc(-c5nc6cc[nH]c(=O)c6cc5-c5ccccc5)cc4)CC3)c2c1` [Borussertib], the EC50 (commonly the concentration giving half of the maximal effect) in the data set on KU-19-19 (bladder) was 7.77 ± 0.641 µM; in the data set with BT-474 (breast), 0.373 ± 0.054 µM; in the data set on MCF-7 (breast), 0.277 ± 0.09 µM.
Turning to MT47-100, the “pKi as an allosteric inhibitor” value in data set [11] is given as 4.6. In addition, the “pKi as an activator” value in data set [12] was 5.4.
Consider `O=C(NC[C@H](O)CO)c1ccncc1Nc1ccc(I)cc1F` [Pimasertib], for which the IC50 in data set [13] is 0.002 to 0.2 µM.
